Data taken from US20250179027A1, “CYCLOALKYL OR HETEROCYCLYL SUBSTITUTED HETEROARYL COMPOUND, AND COMPOSITION AND USE THEREOF” (Shenzhen TargetRx, Inc., priority 2022, published 2025).

Key:
[1] = molecular target: T1, phosphorylated BTK Y223 in NIH/3T3 BTK WT cells (Homo sapiens, UniProt Q06187); assay: Phosphor-BTK(Y223) assay, NIH/3T3 BTK WT cells; type: cell-based; conditions: phosphorylated BTK Y223, NIH/3T3 BTK WT cells; read-out: NIH/3T3 BTK-WT pBTK IC50
T1 construct: expressed in transfected cells; host or cells: NIH/3T3 (mouse fibroblasts) engineered to express BTK WT
Experimental: (§1) The purpose of this assay is to simply, quickly and directly detect the endogenous level of BTK in cells. The specific assay steps are as follows: Day 1: NIH/3T3 BTK WT cells (7.5 k/well) and NIH/3T3 BTK C481S cells (10 k/well) were plated in 96-well plates, respectively, and cultured overnight at 37° C. and 5% CO2.
(§2) • 1. A 3-fold final concentration gradient dilution of the compound was prepared, and 50 μL was added to 100 μL of cell culture; 0.5% DMSO was used as a positive control for cell growth. • 2. The plate was incubated at 37° C., 5% CO2 for 0.5 h. • 3. Na3VO4 with a final concentration of 1 mM was added, and incubated at 37° C. and 5% CO2 for 2 hours. • 4. During the incubation, the following reagents were prepared: 1× added lysis buffer: 3 vol ddH2O+1 vol 4× lysis buffer+100× blocking reagent. p-BTK (Y223) cryptate-antibody and p-BTK (Y223) d2-antibody working solutions: 1 volume of each cryopreserved antibody (stored at −20° C.) was added to 19 times volumes of assay buffer (stored at 4° C.). • 5. After the incubation, the medium was removed and 50 μL of 1× added lysis buffer was added; The mixture was centrifuged at 500 rpm for 30 min at room temperature. • 6. The lysate was mixed well and 16 μL was transferred to a 384-well plate; 1× added lysis buffer was used as a blank control. • 7. 4 μL of pre-mixed working solutions of the two antibodies (cryptate Ab:d2 Ab=1:1) were added and the plate was sealed. • 8. The plate was incubated overnight at room temperature.
(§3) Biotek cytation3.0 microplate reader was used to read the plate at 665 nm and 620 nm, and the ratio of 665/620 nm per well was calculated.
(§4) IC50 was calculated using GraphPad Prism 7.0 software.
(§5) The following nonlinear fitting formula was used to obtain the phosphorylated BTK Y223 IC50 (half phosphorylation inhibitory concentration) of the compounds:
(§6) [formula] • X: Compound concentration log value • Y: Inhibition rate (% inhibition)
(§7) The formula for calculating cell phosphorylation inhibition rate (% inhibition rate) was: […]

[2] = molecular target: T2, phosphorylated BTK Y223 in NIH/3T3 BTK C481S cells (Homo sapiens, UniProt Q06187, C481S); assay: Phosphor-BTK(Y223) assay, NIH/3T3 BTK C481S cells; type: cell-based; conditions: phosphorylated BTK Y223, NIH/3T3 BTK C481S cells; read-out: NIH/3T3 BTK-C481S pBTK IC50
T2 construct: expressed in transfected cells; host or cells: NIH/3T3 (mouse fibroblasts) engineered to express BTK C481S
Experimental: as §1, §2, §3, §4, §5, §6, §7

T2 sequence (Q06187 whole entry C481S): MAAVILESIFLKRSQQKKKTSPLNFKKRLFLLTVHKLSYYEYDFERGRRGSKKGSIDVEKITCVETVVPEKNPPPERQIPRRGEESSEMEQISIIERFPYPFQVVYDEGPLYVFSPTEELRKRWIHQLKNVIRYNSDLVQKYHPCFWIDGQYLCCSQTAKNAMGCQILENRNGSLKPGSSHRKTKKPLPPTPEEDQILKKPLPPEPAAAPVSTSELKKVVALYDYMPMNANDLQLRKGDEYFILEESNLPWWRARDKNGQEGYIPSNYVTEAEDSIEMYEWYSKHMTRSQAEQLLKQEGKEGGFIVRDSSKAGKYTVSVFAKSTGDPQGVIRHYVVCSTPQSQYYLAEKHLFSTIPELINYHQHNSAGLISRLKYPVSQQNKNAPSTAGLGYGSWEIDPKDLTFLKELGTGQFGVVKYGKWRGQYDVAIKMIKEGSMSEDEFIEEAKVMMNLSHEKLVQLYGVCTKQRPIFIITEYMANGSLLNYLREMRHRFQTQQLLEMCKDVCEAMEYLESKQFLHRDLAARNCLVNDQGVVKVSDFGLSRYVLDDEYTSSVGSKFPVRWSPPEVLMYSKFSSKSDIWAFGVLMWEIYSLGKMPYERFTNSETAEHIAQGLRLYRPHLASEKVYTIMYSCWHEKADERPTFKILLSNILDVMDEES
T1 sequence (Q06187 whole entry): as the sequence (Q06187 whole entry C481S) above, with S481C counted along it

| SMILES | IC50 [1] | IC50 [2] |
| --- | --- | --- |
| COc1ccc(F)cc1C(=O)NCc1ccc(-c2nn([C@@H]3C=C[C@@H](O)C3)c3ncnc(N)c23)cc1 (single isomer, unassigned) [Example 49, trans-N-(4-(4-amino-1-(4-hydroxycyclopent-2-en-1-yl)-1H-pyrazolo[3,4-d]pyrimidin-3-yl)benzyl)-5-fluoro-2-methoxybenzamide] | ≤ 25 nM | 25 to 50 nM |
| COc1ccc(F)cc1C(=O)NCc1ccc(-c2nn(C3CCCC(O)C3)c(N)c2C(N)=O)cc1 (stereo not drawn) [Example 1, 5-amino-3-(4-((5-fluoro-2-methoxybenzoylamino)methyl)phenyl)-1-(3-hydroxycyclohexyl)-1H-pyrazole-4-carboxamide] | 100 to 500 nM | 100 to 500 nM |
| COc1ccc(F)cc1C(=O)NCc1ccc(-c2nn([C@H]3CC[C@@H](O)CC3)c3c(=O)[nH]nc(N)c23)cc1 [Example 39, cis-N-(4-(4-amino-1-((1S,4S)-4-hydroxycyclohexanyl)-7-oxo-6,7-dihydro-1H-pyrazolo[3,4-d]pyridazin-3-yl)benzyl)-5-fluoro-2-methoxybenzamide] | 50 to 100 nM | 100 to 500 nM |
| COc1ccc(F)cc1C(=O)NCc1ccc(-c2nn([C@H]3CC[C@H](O)CC3)c3c(=O)[nH]nc(N)c23)cc1 [Example 40, trans-N-(4-(4-amino-1-((1R,4R)-4-hydroxycyclohexanyl)-7-oxo-6,7-dihydro-1H-pyrazolo[3,4-d]pyridazin-3-yl)benzyl)-5-fluoro-2-methoxybenzamide] | 25 to 50 nM | 50 to 100 nM |
| COc1ccc(F)cc1C(=O)NCc1ccc(-c2nn(C3CCC(O)C3)c3c(=O)[nH]nc(N)c23)cc1 (stereo not drawn) [Example 41, N-(4-(4-amino-1-(3-hydroxycyclopentanyl)-7-oxo-6,7-dihydro-1H-pyrazolo[3,4-d]pyridazin-3-yl)benzyl)-5-fluoro-2-methoxybenzamide] | 25 to 50 nM | 50 to 100 nM |
| COc1ccc(F)cc1C(=O)NCc1ccc(-c2nn(C3CCC(O)C3)c3c(=O)[nH]nc(N)c23)cc1 (stereo not drawn) [Example 42, N-(4-(4-amino-1-(3-hydroxycyclopentanyl)-7-oxo-6,7-dihydro-1H-pyrazolo[3,4-d]pyridazin-3-yl)benzyl)-5-fluoro-2-methoxybenzamide] | 50 to 100 nM | 50 to 100 nM |
| COc1ccc(F)cc1C(=O)NCc1ccc(-c2nn(C3CCCC(O)C3)c3c(=O)[nH]nc(N)c23)cc1 (stereo not drawn) [Example 44, N-(4-(4-amino-1-(3-hydroxycyclohexanyl)-7-oxo-6,7-dihydro-1H-pyrazolo[3,4-d]pyridazin-3-yl)benzyl)-5-fluoro-2-methoxybenzamide] | 50 to 100 nM | 100 to 500 nM |
| COc1ccc(F)cc1C(=O)NCc1ccc(-c2nn(C3CCCCC(O)C3)c3ncnc(N)c23)cc1 (stereo not drawn) [Example 57, N-(4-(4-amino-1-(3-hydroxycycloheptyl)-1H-pyrazolo[3,4-d]pyrimidin-3-yl)benzyl)-5-fluoro-2-methoxybenzamide] | 25 to 50 nM | 50 to 100 nM |

Results, then the compound that gave them:

| IC50 [1] | IC50 [2] | SMILES |
| --- | --- | --- |
| ≤ 25 nM | 25 to 50 nM | COc1ccc(F)cc1C(=O)NCc1ccc(-c2nn([C@@H]3C=C[C@@H](O)C3)c3ncnc(N)c23)cc1 (single isomer, unassigned) [Example 50, trans-N-(4-(4-amino-1-(4-hydroxycyclopent-2-en-1-yl)-1H-pyrazolo[3,4-d]pyrimidin-3-yl)benzyl)-5-fluoro-2-methoxybenzamide] |
| 25 to 50 nM | 50 to 100 nM | COc1ccc(F)cc1C(=O)NCc1ccc(-n2cc(C3CCC(CO)OC3)c3ncnc(N)c32)cc1 (single isomer, unassigned) [Example 51, N-(4-(4-amino-7-(6-(hydroxymethyl)tetrahydro-2H-pyran-3-yl)-5H-pyrrolo[3,2-d]pyrimidin-5-yl)benzyl)-5-fluoro-2-methoxybenzamide] |
| 50 to 100 nM | 100 to 500 nM | COc1ccc(F)cc1C(=O)NCc1ccc(-n2cc(C3CCC(CO)OC3)c3ncnc(N)c32)cc1 (single isomer, unassigned) [Example 52, N-(4-(4-amino-7-(6-(hydroxymethyl)tetrahydro-2H-pyran-3-yl)-5H-pyrrolo[3,2-d]pyrimidin-5-yl)benzyl)-5-fluoro-2-methoxybenzamide] |
| ≤ 25 nM | 25 to 50 nM | COc1ccc(F)cc1C(=O)NCc1ccc(-c2cc(C3CCC(CO)OC3)n3ncnc(N)c23)cc1 (single isomer, unassigned) [Example 61, N-(4-(4-amino-7-(6-(hydroxymethyl)tetrahydro-2H-pyran-3-yl)pyrrolo[2,1-f][1,2,4]triazin-5-yl)benzyl)-5-fluoro-2-methoxybenzamide] |
| ≤ 25 nM | 25 to 50 nM | COc1ccc(F)cc1C(=O)NCc1ccc(-c2cc(C3CCC(CO)OC3)n3ncnc(N)c23)cc1 (single isomer, unassigned) [Example 62, N-(4-(4-amino-7-(6-(hydroxymethyl)tetrahydro-2H-pyran-3-yl)pyrrolo[2,1-f][1,2,4]triazin-5-yl)benzyl)-5-fluoro-2-methoxybenzamide] |
| 100 to 500 nM | 100 to 500 nM | COc1ccc(F)cc1C(=O)NCc1ccc(-c2nn(C3CCC(CO)OC3)c(N)c2C(N)=O)cc1 (stereo not drawn) [Example 12, 5-amino-3-(4-((5-fluoro-2-methoxybenzamido)methyl)phenyl)-1-(6-(hydroxymethyl)tetrahydro-2H-pyran-3-yl)-1H-pyrazole-4-carboxamide] |
| ≤ 25 nM | 50 to 100 nM | COc1ccc(F)cc1C(=O)NCc1ccc(-c2nn(C3CCC(CO)OC3)c3ncnc(N)c23)cc1 (stereo not drawn) [Example 15, N-(4-(4-amino-1-(6-(hydroxymethyl)tetrahydro-2H-pyran-3-yl)-1H-pyrazolo[3,4-d]pyrimidin-3-yl)benzyl)-5-fluoro-2-methoxybenzamide] |
| ≤ 25 nM | ≤ 25 nM | COc1ccc(F)cc1C(=O)NCc1ccc(-c2nn(C3CCC(O)C3)c3ncnc(N)c23)cc1 (stereo not drawn) [Example 32, N-(4-(4-amino-1-(3-hydroxycyclopentanyl)-1H-pyrazolo[3,4-d]pyrimidin-3-yl)benzyl)-5-fluoro-2-methoxybenzamide] |
| 100 to 500 nM | 100 to 500 nM | COc1ccc(F)cc1C(=O)NCc1ccc(-c2nn(C3CCC(CO)OC3)c3c(=O)[nH]nc(N)c23)cc1 (stereo not drawn) [Example 43, N-(4-(4-amino-1-(6-(hydroxymethyl)tetrahydro-2H-pyran-3-yl)-7-oxo-6,7-dihydro-1H-pyrazolo[3,4-d]pyridazin-3-yl)benzyl)-5-fluoro-2-methoxybenzamide] |
| ≤ 25 nM | 25 to 50 nM | COc1ccc(F)cc1C(=O)NCc1ccc(-c2cc(C3CCC(CO)OC3)n3ncnc(N)c23)cc1 (stereo not drawn) [Example 58, N-(4-(4-amino-7-(6-(hydroxymethyl)tetrahydro-2H-pyran-3-yl)pyrrolo[2,1-f][1,2,4]triazin-5-yl)benzyl)-5-fluoro-2-methoxybenzamide] |
